# Data as given in PubChem BioAssay (NCI).
#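 Tested at 5 concentrations; 48 h exposure; 96-well plates; endpoints linearly interpolated, else capped at highest concentration. TGI: concentration producing complete growth inhibition.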
# Key:
# Assay in all cases: inhibition of tumour cell growth, NCI panel, 48 h
# A498 renal = test system: A498 renal
# COLO 205 colon = test system: COLO 205 colon
# KM12 colon = test system: KM12 colon
# MCF7 breast = test system: MCF7 breast
# NCI-H226 lung = test system: NCI-H226 lung
# OVCAR-8 ovarian = test system: OVCAR-8 ovarian
# RPMI-8226 leukemia = test system: RPMI-8226 leukemia
# SF-268 CNS = test system: SF-268 CNS
# U251 CNS = test system: U251 CNS
# UACC-62 melanoma = test system: UACC-62 melanoma
SMILES,TGI (A498 renal) [µM],TGI (COLO 205 colon) [µM],TGI (KM12 colon) [µM],TGI (MCF7 breast) [µM],TGI (NCI-H226 lung) [µM],TGI (OVCAR-8 ovarian) [µM],TGI (RPMI-8226 leukemia) [µM],TGI (SF-268 CNS) [µM],TGI (U251 CNS) [µM],TGI (UACC-62 melanoma) [µM]
CC(=O)OC(Cc1cc(C=C(C(F)(F)F)C(F)(F)F)cc(C)n1)(C(F)(F)F)C(F)(F)F,3.3,2.99,2.98,0.97,3.49,> 100,4.56,5.81,4.74,3.54
C=CCC(C)C12CCNC(Cc3ccc(O)cc31)C2C (stereo not given),> 100,> 100,> 100,> 100,> 100,> 100,> 100,> 100,> 100,> 100
c1ccc(CNc2c3c(nc4ccccc24)CCC3)cc1,31.7,25,40.3,30.9,35.9,31.7,29.9,46.6,30.4,28
CC(C)/C(Cl)=N/OC(=O)Nc1ccc(F)c(Cl)c1,33.3,3.25,30.6,22.4,30.9,32.4,2.97,40.3,40.3,27.3
O=C(Nc1ccccc1)O/N=C(/CBr)c1ccccc1,64.1,32.9,44.2,40,60.8,44.1,51.3,47.7,30.5,26.7
O=C(Nc1ccccc1F)c1c(O)nc2sccn2c1=O,> 10,> 10,> 10,> 10,> 10,> 10,> 10,> 10,> 10,> 10
